Experimental data taken from patent US8338565B2, “Macrocyclic compounds for inhibition of tumor necrosis factor alpha” (Ensemble Therapeutics Corporation, priority 2008, dated 2012).
Like-named read-outs stand apart in the source and are kept apart here. Numbered stars: 1 amine (or outer) side, 2 acyl side, 3 side chain; on linkers, the order of the positions; unused ones are H or OH. Bridge positions count the residues as written; N and C are the ends. Square brackets hold non-standard residues; d marks the D form. Peptide text beside a SMILES is read from it. Phe(4-(4-pyridyl)) = N[C@@H](Cc1ccc(-c2ccncc2)cc1)C(=O)O; Phe(4-CF3) = N[C@@H](Cc1ccc(C(F)(F)F)cc1)C(=O)O; Bip = N[C@@H](Cc1ccc(-c2ccccc2)cc1)C(=O)O; Phe(4-NH2) = Nc1ccc(C[C@H](N)C(=O)O)cc1; d(hPhe) = N[C@H](CCc1ccccc1)C(=O)O; d2Thi = N[C@H](Cc1cccs1)C(=O)O; Suc = O=C(CCC(=O)[*:2])[*:1]

Tests used:
[1] = molecular target: T1, TNFα / TNFα receptor (TNFα R1/Fc) (Homo sapiens, UniProt P01375); assay: Inhibition of binding of TNFα to the TNFα receptor (plate ELISA competition); details: Table 2
T1 construct: purchased R&D Systems
T1 sequence (P01375 77-233 limits assumed, species assumed): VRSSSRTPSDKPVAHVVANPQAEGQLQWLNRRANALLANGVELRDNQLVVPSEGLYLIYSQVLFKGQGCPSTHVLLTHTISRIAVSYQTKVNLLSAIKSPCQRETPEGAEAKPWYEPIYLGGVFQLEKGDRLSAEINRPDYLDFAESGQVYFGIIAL
Method in brief: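 Plates were coated with TNFα at 15 nM. Test compound and 8.33 nM receptor-Fc (PBST, 2% DMSO) were first mixed in solution for 30 min at room temperature, then transferred to the plates for another 30 min. Competition was read by absorbance at 450 nm after HRP anti-human IgG Fc detection with TMB.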

[2] = tested on: rat paw edema model; assay: Rat paw edema model (carrageenan), anti-inflammatory activity; format: in vivo, Sprague-Dawley (SD) rats
Protocol: Compounds 3, 4, 10 and 202 were tested in a rat paw edema model to determine anti-inflammatory activity. Seven groups (one for Vehicle A [15 mL PEG400, 3 mL Graves Grain alcohol (190 proof), 1.8 mL dimethylacetamide and 10.2 mL deionized water] alone as a negative control, one for Vehicle B [0.1M NaHCO3] alone as a negative control, one for each of the four test compounds dissolved in Vehicle A, and one for indomethacin dissolved in Vehicle B as a positive control), each group containing six Sprague-Dawley (SD) rats (180-200 g) randomized by weight. Initial paw volumes were measured by placing the right hind limb of the rat up to the top of the hock in a beaker of water sitting on a scale that had been tared to zero and recording the readout.
Rats were pre-treated with either i) one of the test compounds, or ii) a positive or negative control. Vehicle A alone and test compound dissolved in Vehicle A (Compound 3-1.0 mg/kg; Compound 4-0.4 mg/kg; Compound 10-0.5 mg/kg; Compound 202-0.3 mg/kg) were administered by intravenous injection. Vehicle B alone and indomethacin (5 mg/kg in 0.1M NaHCO3) was administered by intraperitoneal injection. Thirty minutes after this pretreatment, rats were anesthetized and injected with 0.1 mL of carrageenan (10 mg/mL in water) in the subplantar region of the right hind foot using a ½ inch 26 gauge needle attached to a 1 cc syringe.
At 2, 4 and 6 hours post-carrageenan injection, the right hind foot of each rat was measured for paw volume as described above.
We next investigated the effect of varying intravenous doses of Compound 202 (0.05, 0.10, 0.30, and 1.00 mg/kg) in the same model using the same protocol (6 rats per group). […] We also investigated the affect of oral dosing (10 mg/kg) of Compound 202 in the same model. For oral dosing, a 2.5 mg/mL suspension of Compound 202 was prepared in Vehicle A. Rats were orally administered 4 mL/kg of that suspension.

[3] = tested on: TNF-α (degradation of IkB in HeLa cells or A431 cells); assay: Human cell-based assay: inhibition of TNF-α induced degradation of IkB; details: for inhibition at 5 µM: read-out: Inhibition at Various Compound Concentrations, 5 μM; for inhibition at 10 µM: read-out: Inhibition at Various Compound Concentrations, 10 μM
[4] = tested on: rat paw edema model; assay: Rat paw edema model (carrageenan), anti-inflammatory activity; format: in vivo, Sprague-Dawley (SD) rats; details: Table 8; 3 mg/kg PO; 4 h post-carrageenan
[5] = Activity (IC50, inhibition of TNFα binding to TNFα R1/Fc)
[6] = Table 5, 1 mg/kg IV, 2 h post-carrageenan
[7] = Table 5, 1 mg/kg IV, 4 h post-carrageenan
[8] = Table 5, 1 mg/kg IV, 6 h post-carrageenan
[9] = read-out: Activity (IC50, inhibition of TNFα binding to TNFα R1/Fc)
[10] = 5 μM compound, HeLa or A431 cells
[11] = 10 μM compound, HeLa or A431 cells
[12] = Table 6, 1 mg/kg IV, 2 h post-carrageenan
[13] = Table 6, 1 mg/kg IV, 4 h post-carrageenan
[14] = Table 6, 1 mg/kg IV, 6 h post-carrageenan
[15] = Table 4, 1 mg/kg IV, 2 h post-carrageenan
[16] = Table 4, 1 mg/kg IV, 4 h post-carrageenan
[17] = Table 4, 1 mg/kg IV, 6 h post-carrageenan

SMILES	IC50 [1, 9] [µM]	inhibition at 5 µM [3] [%]	inhibition at 10 µM [3] [%]	inhibition at 5 µM [3, 10] [%]	inhibition at 10 µM [3, 11] [%]	Change in Paw Volume [2, 12] [mL]	Change in Paw Volume [2, 13] [mL]	Change in Paw Volume [2, 14] [mL]	Change in Paw Volume [2, 15] [mL]	Change in Paw Volume [2, 16] [mL]	Change in Paw Volume [2, 17] [mL]	other results
O=C1COc2ccc(cc2)C[C@@H](C(=O)NCS(=O)(=O)O)NC(=O)[C@H](CCc2ccccc2)NC(=O)[C@@H](Cc2ccc(-c3ccccc3)cc2)NC(=O)[C@H](Cc2cccs2)N1 [Compound 482]		10 to 50	10 to 50									IC50 [1, 5]: < 10 µM; Change in Paw Volume [2, 6]: 0.73 ± 0.19 mL; Change in Paw Volume [2, 7]: 0.99 ± 0.34 mL; Change in Paw Volume [2, 8]: 0.86 ± 0.27 mL; Change in Paw Volume ([2]; Table 8, 3 mg/kg PO, 2 h post-carrageenan): 1.13 ± 0.15 mL; Change in Paw Volume ([2]; Table 8, 3 mg/kg PO, 6 h post-carrageenan): 1.14 ± 0.10 mL; Change in Paw Volume [4]: 1.18 ± 0.10 mL
CC(C)(C)Oc1ccc(C[C@@H]2NC(=O)[C@@H](Cc3ccc(-c4ccccc4)cc3)NC(=O)[C@H](Cc3cccs3)NC(=O)COc3ccc(cc3)C[C@@H](C(=O)O)NC2=O)cc1 [Compound 346]	< 10	> 80	50 to 80			1.17 ± 0.06	1.20 ± 0.09	1.34 ± 0.09				
O=C1COc2ccc(cc2)C[C@@H](C(=O)N[C@@H](CCc2ccccc2)C(=O)O)NC(=O)[C@H](Cc2ccccc2)NC(=O)[C@@H](Cc2ccc(-c3ccccc3)cc2)NC(=O)[C@H](Cc2cccs2)N1 [Compound 393]		10 to 50	> 80			1.27 ± 0.07	1.28 ± 0.08	1.42 ± 0.12	1.24 ± 0.18	1.54 ± 0.25	1.56 ± 0.17	IC50 [1, 5]: < 10 µM
O=C(O)[C@H](Cc1ccccc1)NC(=O)[C@@H]1Cc2ccc(cc2)NC(=O)[C@H](O)[C@@H](O)C(=O)N[C@H](Cc2cccs2)C(=O)N[C@@H](Cc2ccc(-c3ccncc3)cc2)C(=O)N[C@H](Cc2ccccc2)C(=O)N1 [Compound 442]	< 10			10 to 50	10 to 50							Change in Paw Volume [2, 6]: 0.86 ± 0.15 mL; Change in Paw Volume [2, 7]: 1.08 ± 0.16 mL; Change in Paw Volume [2, 8]: 1.01 ± 0.14 mL
O=C1COc2ccc(cc2)C[C@@H](C(=O)O)NC(=O)[C@H](CCc2ccccc2)NC(=O)[C@@H](Cc2ccc(-c3ccccc3)cc2)NC(=O)[C@H](Cc2cccs2)N1 [Compound 348]	< 10			10 to 50	50 to 80	1.13 ± 0.10	1.30 ± 0.20	1.32 ± 0.11				
O=C1COc2ccc(cc2)C[C@@H](C(=O)O)NC(=O)[C@H](Cc2ccccc2)NC(=O)[C@H](Cc2ccc(-c3ccc(NC(=O)OCc4ccccc4)cc3)cc2)NC(=O)[C@H](Cc2cccs2)N1 [Compound 362]	< 10	< 10	10 to 50									Change in Paw Volume [2, 6]: 1.17 ± 0.07 mL; Change in Paw Volume [2, 7]: 1.22 ± 0.21 mL; Change in Paw Volume [2, 8]: 1.15 ± 0.19 mL

The next lines start with results.

IC50 [1, 9] [µM]	SMILES	inhibition at 5 µM [3] [%]	inhibition at 10 µM [3] [%]	inhibition at 5 µM [3, 10] [%]	inhibition at 10 µM [3, 11] [%]	Change in Paw Volume [2, 12] [mL]	Change in Paw Volume [2, 13] [mL]	Change in Paw Volume [2, 14] [mL]	Change in Paw Volume [2, 15] [mL]	Change in Paw Volume [2, 16] [mL]	Change in Paw Volume [2, 17] [mL]	other results
10 to 30	O=C1CCC(=O)N[C@H](CCc2ccccc2)C(=O)N[C@@H](Cc2ccc(-c3ccncc3)cc2)C(=O)N[C@H](Cc2ccccc2)C(=O)N[C@H](C(=O)O)Cc2ccc(cc2)N1 [Compound 419] ([d(hPhe)][Phe(4-(4-pyridyl))][dF][Phe(4-NH2)]-OH; linker N-4 via Suc)			< 10	< 10							Change in Paw Volume ([2]; Table 8, 1 mg/kg IV, 2 h post-carrageenan): 1.22 ± 0.21 mL; Change in Paw Volume ([2]; Table 8, 1 mg/kg IV, 4 h post-carrageenan): 1.32 ± 0.18 mL; Change in Paw Volume ([2]; Table 8, 1 mg/kg IV, 6 h post-carrageenan): 1.16 ± 0.16 mL
< 10	O=C(O)CCCNC(=O)[C@@H]1Cc2ccc(cc2)OCC(=O)N[C@@H](Cc2cccs2)C(=O)N[C@@H](Cc2ccc(-c3ccccc3)cc2)C(=O)N[C@@H](Cc2ccccc2)C(=O)N1 [Compound 342]			< 10	10 to 50				1.36 ± 0.10	1.49 ± 0.20	1.51 ± 0.15	
< 10	O=C1CCC(=O)N[C@H](CCc2ccccc2)C(=O)N[C@@H](Cc2ccc(C(F)(F)F)cc2)C(=O)N[C@H](Cc2ccccc2)C(=O)N[C@H](C(=O)N[C@@H](Cc2ccccc2)C(=O)O)Cc2ccc(cc2)N1 [Compound 11] ([d(hPhe)][Phe(4-CF3)][dF][Phe(4-NH2)]F-OH; linker N-4 via Suc)			10 to 50	50 to 80				1.37 ± 0.16	1.43 ± 0.13	1.45 ± 0.08	
< 10	O=C1CCC(=O)N[C@H](Cc2cccs2)C(=O)N[C@@H](Cc2ccc(-c3ccccc3)cc2)C(=O)N[C@H](Cc2ccccc2)C(=O)N[C@H](C(=O)N[C@H](Cc2ccccc2)C(=O)O)Cc2ccc(cc2)N1 [Compound 33] ([d2Thi][Bip][dF][Phe(4-NH2)][dF]-OH; linker N-4 via Suc)			10 to 50	50 to 80				1.10 ± 0.22	1.49 ± 0.11	1.46 ± 0.07	
10 to 30	O=C(O)[C@@H]1Cc2ccc(cc2)NC(=O)[C@H](O)[C@@H](O)C(=O)N[C@H](Cc2cccs2)C(=O)N[C@@H](Cc2ccc(-c3ccccc3)cc2)C(=O)N[C@H](Cc2ccccc2)C(=O)N1 [Compound 4]				< 10							Change in Paw Volume ([2]; Table 3, 0.4 mg/kg IV, 2 h post-carrageenan): 0.72 ± 0.13 mL; Change in Paw Volume ([2]; Table 3, 0.4 mg/kg IV, 4 h post-carrageenan): 1.16 ± 0.16 mL; Change in Paw Volume ([2]; Table 3, 0.4 mg/kg IV, 6 h post-carrageenan): 1.16 ± 0.25 mL
< 10	O=C(O)[C@@H]1Cc2ccc(cc2)NC(=O)[C@H](O)[C@@H](O)C(=O)N[C@H](Cc2cccs2)C(=O)N[C@@H](Cc2ccc(-c3ccncc3)cc2)C(=O)N[C@H](Cc2ccccc2)C(=O)N1 [Compound 330]			> 80	10 to 50	1.20 ± 0.20	1.32 ± 0.17	1.33 ± 0.22				
< 10	O=C(O)[C@H](Cc1ccccc1)NC(=O)[C@@H]1Cc2ccc(cc2)NC(=O)[C@H](O)[C@@H](O)C(=O)N[C@H](Cc2cccs2)C(=O)N[C@@H](Cc2ccc(-c3ccccc3)cc2)C(=O)N[C@H](Cc2ccccc2)C(=O)N1 [Compound 174]			< 10	10 to 50							Change in Paw Volume ([2]; Table 7, 1 mg/kg IV, 2 h post-carrageenan): 1.22 ± 0.08 mL; Change in Paw Volume ([2]; Table 7, 1 mg/kg IV, 4 h post-carrageenan): 1.53 ± 0.13 mL; Change in Paw Volume ([2]; Table 7, 1 mg/kg IV, 6 h post-carrageenan): 1.70 ± 0.22 mL
